Measurements taken from patent publication US12527832B2, “Enriched Withania somnifera based dietary composition and a method thereof” (priority 2015, dated 2026).

Legend:
Swiss mice = assay: Swimming endurance test; assay type: in vivo; conditions: 8th day after 7 days once daily p.o.
Procedure: Extracts were given to the mice, once daily for a period of 7 days. On 8th day the mice were subjected to swimming stress by keeping them in propylene tank of dimension (37×37×30 cm), filled with water to a height of 25 cm. The […] were allowed to swim till complete exhaustion and the endpoint was taken when the animal started drowning. The mean swimming time for each group was calculated.

Swiss albino mice = assay: Pentobarbital induced sleep activity; assay type: in vivo; conditions: 1 mg/kg
Procedure: Swiss albino mice weighing 25-30 gm were used for the study.
Thirty minutes later, pentobarbital 40 mg/kg body weight was administered to each mouse to induce sleep. The onset time of sleep was recorded for all the animals. After induction of sleep, mice were placed in the inverted position and when sedation was over, the time point when the mice returned to their normal posture was noted. The time interval between dosing and the start of sleep was recorded as latency time.

Albino Wistar rats = assay: Anoxia stress tolerance (AST) test; assay type: in vivo, rat; conditions: p.o. daily
Procedure: Albino Wistar rats of either sex weighing 150-220 g were selected and divided into seven groups of six each. Doses in each group were calculated thus, only 5 mg/Kg body weight withanolide were administered to each animal. The test was conducted as per the protocol disclosed in U.S. Pat. No. 9,987,323B2.
Animals were treated as shown above for the 3 weeks. At the end of 1st, 2nd and 3rd week i.e., on 7th, 14th and 21st day 1 h after the treatment stress was induced by placing each animal individually in the hermetic vessel of 1 L capacity to record anoxia tolerance time. The time duration of entry of the animal into the hermetic vessel and the appearance of the first convulsion was taken as time of anoxia.

GABA receptors = assay: Expression of GABA receptors in rat glioblastoma (C6) cell line; assay type: cell-based; conditions: C6 cells, positive control 1 μg/mL
Wistar rats = assay: Carrageenan induced paw edema model; assay type: in vivo, rat; conditions: single p.o. dose
Procedure: Anti-inflammatory activity of Withania somnifera extracts was assessed by carrageenan induced paw edema model in rats. Wistar rats were divided into seven groups (n=5). Following treatment was given to the rats as single dose; • Group 1: Control (Received only vehicle, 1% Tween 80 v/v p.o.) • Group II: Powdered Withania somnifera plant parts minimum 0.4% withanolides—Dosage 1750 mg/kg p.o. • Group III: Withania somnifera plant extract standardized minimum 2.5% withanolides (WG2.5)—Dosage 200 mg/kg p.o. • Group IV: Withania somnifera plant extract standardized minimum 5% withanolides (WG5)—Dosage 100 mg/kg p.o. • Group V: Withania somnifera plant extract standardized minimum 10% Withanolide Glycoside (WG10)—Dosage 50 mg/kg p.o. • Group VI: Sample 2 standardized with minimum 35±3% Withanolide Glycoside (WG 35)—Dosage 14 mg/kg p.o). • Group VII: Indomethacin (10 mg/kg p.o.).
After 30 minutes of extracts 0.1 mL of carrageenan (1% in normal saline) was injected into the right hind paw of each rat. The paw volume was measured plethysmographically at 0, 0.5, 1, 2, 3, 4 and 5th hour after challenge. The percentage inhibition of edema was calculated for each group with respect to the vehicle received control group of animals.

[1] = Bioavailability of Withaferin A and Withanoside IV in animals; assay type: in vivo; conditions: rat plasma, p.o.; standards 15 mg/kg, WG35 500 mg/kg
Procedure: Albino rats weighing 200-220 gm of both sexes were used for the study. The rats were kept individually in polypropylene cages and maintained in a well-ventilated room under normal and uniform conditions like 12 hours light and dark cycle and at 26±2° C. Water and feed were given ad-libitum. After the acclimatization period, the animals were fasted overnight before administration of test products.
Immediately after drug administration, 0.5 ml of blood was withdrawn at 0, 0.5, 1, 1.5, 2, 4, 6, 8 and 12 hours. Plasma samples were separated and Withaferin A and Withanoside IV were detected.

[2] = rats, administered orally; cited from earlier work

CN1C(=O)CN=C(c2ccccc2)c2cc(Cl)ccc21 [Diazepam]
Swimming time (Swiss mice): 58.67 min
Duration of sleep (Swiss albino mice; pentobarbital 40 mg/kg): 99
Onset time of sleep (latency time) (Swiss albino mice; pentobarbital 40 mg/kg): 27 min
Percentage decrease in onset time of sleep (Swiss albino mice; vs control): 47%
Percentage increase in duration of sleep (Swiss albino mice; vs control): 74%
Duration of anoxia stress tolerance (Albino Wistar rats; 1st week): 34.40 min
Duration of anoxia stress tolerance (Albino Wistar rats; 2nd week): 35.1 min
Duration of anoxia stress tolerance (Albino Wistar rats; 3rd week): 37.00 min

NCCCC(=O)O [GABA, Gamma aminobutyric acid]
Gene expression of GABA receptors, fold increase (cell control = 1.00) (GABA receptors): 1.00

COc1ccc2c(c1)c(CC(=O)O)c(C)n2C(=O)c1ccc(Cl)cc1 [Indomethacin]
Percentage inhibition of paw oedema (Wistar rats; 0.5 hr): 28%
Percentage inhibition of paw oedema (Wistar rats; 1 hr): 65%
Percentage inhibition of paw oedema (Wistar rats; 2 hr): 80%
Percentage inhibition of paw oedema (Wistar rats; 3 hr): 86%

CC1=C(CO)C(=O)O[C@@H]([C@@H](C)[C@H]2CC[C@H]3[C@@H]4C[C@H]5O[C@]56[C@@H](O)C=CC(=O)[C@]6(C)[C@H]4CC[C@]23C)C1 [Withaferin A]
Withaferin A AUC (0-12 h) [1]: 30.2 ng·h/mL
Withaferin A Cmax [1]: 28 ng/mL

CC1=C(C)C(=O)O[C@@H]([C@](C)(O)[C@H]2CC[C@H]3[C@@H]4[C@@H]5O[C@@H]5[C@@]5(O)CC=CC(=O)[C@]5(C)[C@H]4CC[C@]23C)C1 [Withanolide A]
Absolute bioavailability of withanolide A in plasma [2]: less than 5%

CC1=C(CO)C(=O)O[C@@H]([C@@H](C)[C@H]2CC[C@H]3[C@@H]4CC=C5C[C@@H](O[C@@H]6O[C@H](CO[C@@H]7O[C@H](CO)[C@@H](O)[C@H](O)[C@H]7O)[C@@H](O)[C@H](O)[C@H]6O)C[C@H](O)[C@]5(C)[C@H]4CC[C@]23C)C1 [Withanoside IV]
Withaferin A AUC (0-12 h) [1]: 18 ng·h/mL
Withaferin A Cmax [1]: 13.5 ng/mL
Withanoside IV AUC (0-12 h) [1]: 14 ng·h/mL
Withanoside IV Cmax [1]: 10.2 ng/mL
